Measurements from PubChem BioAssay AID2060605 (Molecular Pharmacology Branch, DTP, NCI, 2025).
Where “and” joins values, the source holds several entries; their conditions need not be identical. Identical values can stand only once. Blank lines part the entries; values can stand above or below the compound they belong to.

Tested on: 947758-054-R-J2-PDC spheroid growth, percent test/control
Assay: Anticancer human tumor 947758-054-R-J2-PDC patient-derived colon adenocarcinoma cell line growth inhibition [CLK]
Conditions: spheroids with HUVEC and MSC; for viability, T/C: stronger effect = lower value
Excerpt: A high-throughput screen of multi-cell type tumor spheroids was designed to identify active combinations of […] and targeted small molecules. Complex spheroids include a stromal component modeled by human endothelial cells (HUVEC) and fibroblasts modeled by human mesenchymal stem cells (MSCs). The concentration ranges selected for each drug and investigational agent were based upon clinically achievable concentrations if the clinical Cmax of the agent was known.
Compounds. The drugs and investigational agents: cirtuvivint (SM08502; NSC835563), CC-671 (NSC850746), vemurafenib (NSC761431), tapotoclax (NSC804041), sotorasib (NSC818433), adagrasib (NSC831453), MRTX-1133 (NSC836407), BAY2416964 (NSC825713), copanlisib (NSC816437), inavolisib (NSC800729), abemaciclib (NSC768073), osimertinib (NSC779217), entinostat (NSC756642), eltanexor (KPT-8602, NSC794443), venetoclax (NSC766270), ceralasertib (NSC777638), bortezomib (NSC756655), olaparib (NSC753686), talazoparib (NSC767125), alisertib (NSC759677), peposertib (NSC802822), gemcitabine (NSC613327), 5-fluorouracil (NSC19893), SN-38 (NSC673596), oxaliplatin (NSC266046), paclitaxel (NSC125973), and doxorubicin (NSC123127), were obtained from the National Cancer Institute (NCI) Developmental Therapeutics Program Chemical Repository. The FDA-approved anticancer drug set is available from the Developmental Therapeutics Program at https://dtp.cancer.gov/organization/dscb/obtaining/available plates.htm. […] The stock solutions were prepared in dimethyl sulfoxide (DMSO, Sigma-Aldrich, St. Louis, MO, cat. D2650), except for the platinum complexes which were prepared in saline (Quality Biological, Gaithersburg, MD, cat. 114-055-101), at 800-fold the tested concentration and stored at -70 degrees C prior to their use. All drugs and investigational agents were tested over a range starting from a high concentration at or near the clinical Cmax and decreasing in half-log increments. If the clinical Cmax for an agent had not been determined, the highest concentration tested was 10 microM.
Cell Culture. All cells were maintained in an incubator at 37 degrees C and 5% CO2 with 95% humidity. The PDC lines were cultured according to standard operating procedures established by the NCI PDMR. Briefly, all PDCs were thawed and cultured in Matrigel-coated flasks prepared with a working solution of 1X Ham's F-12 nutrient mix, without supplementation (Invitrogen, Waltham, MA, cat. 11765054), 100 U/mL penicillin-streptomycin (Invitrogen, cat. 15140122), and 2.5% Matrigel (Corning Inc., Corning, NY, cat. 354248) for the first three passages. The 947758-054-R-J2-PDC line was cultured in 6B/Colon 1A media, which includes advanced DMEM/F-12 (Thermo Fisher Scientific, cat. 12634028), 10 mM HEPES (Thermo Fisher Scientific, cat. 15630080), 1X GlutaMAX supplement (Thermo Fisher Scientific, cat. 35050061), 0.1 mg/mL primocin (InvivoGen, cat. ant-pm-2), 10% defined fetal bovine serum, heat inactivated (HyClone Laboratories Inc., cat. SH30070.03HI), 1.25 mM N-Acetyl-L-cysteine (Sigma-Aldrich, cat. A9165), 10 mM nicotinamide (Sigma-Aldrich, cat. N0636), 1X B-27 supplement (Thermo Fisher Scientific, cat. 17504044), 1X N-2 supplement (Thermo Fisher Scientific, cat. 17502048), and 10 microM Y-27632 dihydrochloride (Tocris Bioscience, cat. 1254). The 876862-298-R-J1-PDC was cultured in 6E media, which includes all 6B/Colon 1A media components plus 50% L-WRN conditioned media (ATCC, cat. CRL-3276), 50 ng/mL recombinant human EGF recombinant protein (hEGF; Thermo Fisher Scientific, cat. PHG0311), 10 ng/mL recombinant human fibroblast growth factor 10 (hGFG-10; PeproTech, cat. 100-26), 1 ng/mL recombinant human fibroblast growth factor 2 (hFGF-2; PeproTech, cat. 100-18B), and 1 µM prostaglandin E2 (PGE2; Tocris, cat. 2296). The 227483-062-R1-J1-PDC line was cultured in Panc media, containing all 6E components except hFGF-2, with the addition of 500 nM SB-431542 (Selleckchem, cat. S1067) and 10 nM gastrin (Tocris, cat. 3006). […]

[1] = curve of first compound, second compound 0.0316 µM
[2] = curve of first compound, second compound 0.1 µM
[3] = curve of first compound, second compound 0.316 µM
[4] = curve of first compound, second compound 1 µM
[5] = curve of first compound, second compound 3.16 µM
[6] = curve of first compound, second compound 10 µM
[7] = second compound 0.0316 µM, first compound 0.0316 µM
[8] = second compound 0.0316 µM, first compound 0.1 µM
[9] = second compound 0.0316 µM, first compound 0.316 µM
[10] = second compound 0.0316 µM, first compound 1 µM
[11] = second compound 0.0316 µM, first compound 3.16 µM
[12] = second compound 0.0316 µM, first compound 10 µM
[13] = second compound 0.1 µM, first compound 0.0316 µM
[14] = second compound 0.1 µM, first compound 0.1 µM
[15] = second compound 0.1 µM, first compound 0.316 µM
[16] = second compound 0.1 µM, first compound 1 µM
[17] = second compound 0.1 µM, first compound 3.16 µM
[18] = second compound 0.1 µM, first compound 10 µM
[19] = second compound 0.316 µM, first compound 0.0316 µM
[20] = second compound 0.316 µM, first compound 0.1 µM
[21] = second compound 0.316 µM, first compound 0.316 µM
[22] = second compound 0.316 µM, first compound 1 µM
[23] = second compound 0.316 µM, first compound 3.16 µM
[24] = second compound 0.316 µM, first compound 10 µM
[25] = second compound 1 µM, first compound 0.0316 µM
[26] = second compound 1 µM, first compound 0.1 µM
[27] = second compound 1 µM, first compound 0.316 µM
[28] = second compound 1 µM, first compound 1 µM
[29] = second compound 1 µM, first compound 3.16 µM
[30] = second compound 1 µM, first compound 10 µM
[31] = second compound 3.16 µM, first compound 0.0316 µM
[32] = second compound 3.16 µM, first compound 0.1 µM
[33] = second compound 3.16 µM, first compound 0.316 µM
[34] = second compound 3.16 µM, first compound 1 µM
[35] = second compound 3.16 µM, first compound 3.16 µM
[36] = second compound 3.16 µM, first compound 10 µM
[37] = second compound 10 µM, first compound 0.0316 µM
[38] = second compound 10 µM, first compound 0.1 µM
[39] = second compound 10 µM, first compound 0.316 µM
[40] = second compound 10 µM, first compound 1 µM
[41] = second compound 10 µM, first compound 3.16 µM
[42] = second compound 10 µM, first compound 10 µM
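Also: spheroids exposed to compounds for one week before readout.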
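For viability, T/C in this document: 100% = DMSO vehicle control wells.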

Structure (SMILES): COc1cccc2c1C(=O)c1c(O)c3c(c(O)c1C2=O)CC(O)(C(=O)CO)CC3OC1CC(N)C(O)C(C)O1 (stereo unspecified) + CN1CCN(c2cc(C(=O)Nc3cc4cc(-c5cnn(C)c5)ccc4cn3)ccn2)CC1
IC50 [1]: 91.3 nM
IC50 [2]: < 31.6 nM
IC50 [3]: < 31.6 nM
IC50 [4]: < 31.6 nM
IC50 [5]: < 31.6 nM
IC50 [6]: < 31.6 nM
viability, T/C [7]: 100%
viability, T/C [8]: 38.9%
viability, T/C [9]: 33.2%
viability, T/C [10]: 4.76%
viability, T/C [11]: 0.5%
viability, T/C [12]: 4.61%
viability, T/C [13]: 44.3%
viability, T/C [14]: 35.4%
viability, T/C [15]: 21.1%
viability, T/C [16]: 1.67%
viability, T/C [17]: 0.35%
viability, T/C [18]: 7.75%
viability, T/C [19]: 1.3%
viability, T/C [20]: 1.49%
viability, T/C [21]: 0.27%
viability, T/C [22]: 0.21%
viability, T/C [23]: 1.68%
viability, T/C [24]: 8.73%
viability, T/C [25]: 0.12%
viability, T/C [26]: 1.01%
viability, T/C [27]: 0.13%
viability, T/C [28]: 0.11%
viability, T/C [29]: 2.81%
viability, T/C [30]: 6.86%
viability, T/C [31]: 0.14%
viability, T/C [32]: 0.96%
viability, T/C [33]: 1.03%
viability, T/C [34]: 0.15%
viability, T/C [35]: 0.83%
viability, T/C [36]: 7.28%
viability, T/C [37]: 0.46%
viability, T/C [38]: 1.26%
viability, T/C [39]: 0.8%
viability, T/C [40]: 0.22%
viability, T/C [41]: 2.33%
viability, T/C [42]: 7.23%

IC50 (curve of compound): 5230 nM and 5170 nM
Structure (SMILES): CC1(C)CCC(CN2CCN(c3ccc(C(=O)NS(=O)(=O)c4ccc(NCC5CCOCC5)c([N+](=O)[O-])c4)c(Oc4cnc5[nH]ccc5c4)c3)CC2)=C(c2ccc(Cl)cc2)C1
viability, T/C (compound 0.0316 µM): 97.8% and 118%
viability, T/C (compound 0.1 µM): 77.6% and 97.2%
viability, T/C (compound 0.316 µM): 97.4% and 110%
viability, T/C (compound 1 µM): 94.5% and 86.3%
viability, T/C (compound 3.16 µM): 79.5% and 87.2%
viability, T/C (compound 10 µM): 11.8% and 7.38%

Structure (SMILES): C=CC(=O)N1CCN(c2nc(=O)n(-c3c(C)ccnc3C(C)C)c3nc(-c4c(O)cccc4F)c(F)cc23)C(C)C1 (stereo unspecified) + CN1CCN(c2cc(C(=O)Nc3cc4cc(-c5cnn(C)c5)ccc4cn3)ccn2)CC1
IC50 [1]: > 10000 nM
IC50 [2]: > 10000 nM
IC50 [3]: < 31.6 nM
IC50 [4]: < 31.6 nM
IC50 [5]: < 31.6 nM
IC50 [6]: < 31.6 nM
viability, T/C [7]: 118%
viability, T/C [8]: 143%
viability, T/C [9]: 122%
viability, T/C [10]: 98.4%
viability, T/C [11]: 113%
viability, T/C [12]: 99.8%
viability, T/C [13]: 172%
viability, T/C [14]: 199%
viability, T/C [15]: 161%
viability, T/C [16]: 234%
viability, T/C [17]: 167%
viability, T/C [18]: 77.3%
viability, T/C [19]: 4.67%
viability, T/C [20]: 7.3%
viability, T/C [21]: 6.68%
viability, T/C [22]: 5.29%
viability, T/C [23]: 3.14%
viability, T/C [24]: 1.35%
viability, T/C [25]: 0.18%
viability, T/C [26]: 3.35%
viability, T/C [27]: 0.19%
viability, T/C [28]: 0.19%
viability, T/C [29]: 0.18%
viability, T/C [30]: 0.21%
viability, T/C [31]: 2.2%
viability, T/C [32]: 0.99%
viability, T/C [33]: 0.31%
viability, T/C [34]: 0.31%
viability, T/C [35]: 0.72%
viability, T/C [36]: 0.51%
viability, T/C [37]: 0.46%
viability, T/C [38]: 0.29%
viability, T/C [39]: 1.59%
viability, T/C [40]: 0.39%
viability, T/C [41]: 0.98%
viability, T/C [42]: 0.57%
